From patent publication US9340507B2, “Substituted 4-pyridones and their use as inhibitors of neutrophil elastase activity” (Boehringer Ingelheim International GmbH, priority 2012, dated 2016)
pIC50: −log10 of the molar value.

The compounds below were run against Human neutrophil elastase (Homo sapiens (Human), UniProt P08246) (assay: Human Neutrophil Elastase Assay). Settings: substrate MeOSuc-Ala-Ala-Pro-Val-AMC 250 μM, pH 7.5, fluorescence.
Assay type: biochemical
Method: Human Neutrophil Elastase Assay
All other materials were of the highest grade commercially available.
The following buffers were used: Compound buffer: 100 mM Tris, 500 mM NaCl, adjusted to pH 7.5; Assay buffer: 100 mM Tris, 500 mM NaCl, adjusted to pH 7.5, containing 0.01% BSA.
Assay conditions: Test compounds were prediluted in DMSO and subsequently in compound buffer (5% DMSO final). […] After inactivation of the enzyme, fluorescence intensities were measured at 380 nm excitation and 460 nm emission wavelengths.
Each plate contains wells with a high value control (DMSO+enzyme+substrate) and wells with a low value control (DMSO+inactivated enzyme+substrate). IC50 values were estimated using a sigmoidal concentration response curve with variable slope. Means of low values were taken as 0%, means of high values as 100%. IC50 values of selected compound in the Neutrophil Elastase assay: […]

Human neutrophil elastase, sequence (P08246 30-267): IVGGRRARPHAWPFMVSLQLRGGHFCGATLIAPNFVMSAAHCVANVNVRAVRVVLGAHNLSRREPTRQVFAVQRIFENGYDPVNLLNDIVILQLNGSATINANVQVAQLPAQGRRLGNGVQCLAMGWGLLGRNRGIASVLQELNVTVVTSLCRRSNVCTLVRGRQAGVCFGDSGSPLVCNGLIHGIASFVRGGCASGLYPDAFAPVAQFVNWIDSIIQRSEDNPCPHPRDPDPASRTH

pIC50 | Compound
7.42 | COc1cc(S(C)(=O)=O)ccc1CNC(=O)c1cn(C(C)C)c(C)c(-c2cccc(C(F)(F)F)c2)c1=O [Example 47, 1-Isopropyl-6-methyl-4-oxo-5-(3-trifluoromethyl-phenyl)-1,4-dihydro-pyridine-3-carboxylic acid 4-methanesulfonyl-2-methoxy-benzylamide]
7.32 | Cc1c(-c2cc(Cl)cc(C(F)(F)F)c2)c(=O)c(C(=O)NCc2ccc(S(C)(=O)=O)cc2)cn1C(C)C [Example 5.3]
7.19 | Cc1c(-c2cccc(C(F)(F)F)c2)c(=O)c(C(=O)NCc2ccc(N3CCNC3=O)cc2)cn1C(C)C [Example 3.8]
7.37 | Cc1nnc(CNC(=O)c2cn(C3CCCC3)c(C)c(-c3cccc(C(F)(F)F)c3)c2=O)o1 [Example 8.1, 1-Cyclopentyl-6-methyl-4-oxo-5-(3-trifluoromethyl-phenyl)-1,4-dihydro-pyridine-3-carboxylic acid (5-methyl-[1,3,4]oxadiazol-2-ylmethyl)-amide]
7.49 | Cc1c(-c2cccc(C(F)(F)F)c2)c(=O)c(C(=O)NCc2ccc(S(C)(=O)=O)cn2)cn1C1CCC1 [Example 18.1, 1-Cyclobutyl-6-methyl-4-oxo-5-(3-trifluoromethyl-phenyl)-1,4-dihydro-pyridine-3-carboxylic acid (5-methanesulfonyl-pyridin-2-ylmethyl)-amide]
7.14 | Cc1c(-c2ccnc(C(F)(F)F)c2)c(=O)c(C(=O)NCc2ccc(S(C)(=O)=O)cc2)cn1C(C)C [Example 5.1, 1-Isopropyl-2-methyl-4-oxo-2′-trifluoromethyl-1,4-dihydro-[3,4]bipyridinyl-5-carboxylic acid 4-methanesulfonyl-benzylamide]
7.38 | Cc1c(-c2cccc(C(F)F)c2)c(=O)c(C(=O)NCc2ccc(S(N)(=O)=O)cc2)cn1C(C)C [Example 4.10]
7.20 | COCCn1cc(C(=O)NCc2ccc(S(C)(=O)=O)c[n+]2[O-])c(=O)c(-c2cccc(C(F)(F)F)c2)c1C [Example 16, 1-(2-Methoxy-ethyl)-6-methyl-4-oxo-5-(3-trifluoromethyl-phenyl)-1,4-dihydro-pyridine-3-carboxylic acid (5-methanesulfonyl-1-oxy-pyridin-2-ylmethyl)-amide]
7.59 | Cc1c(-c2cccc(C(F)(F)F)c2)c(=O)c(C(=O)NCc2ccc(S(C)(=O)=O)cc2F)cn1C(C)C [Example 34, 1-Isopropyl-6-methyl-4-oxo-5-(3-trifluoromethyl-phenyl)-1,4-dihydro-pyridine-3-carboxylic acid 2-fluoro-4-methanesulfonyl-benzylamide]
7.22 | Cc1c(-c2cccc(C(F)F)c2)c(=O)c(C(=O)NCc2cnn(C)c2)cn1C(C)C [Example 4.2]
7.27 | CC[C@H](C)n1cc(C(=O)NCc2ccc(S(C)(=O)=O)cc2)c(=O)c(-c2ccnc(C(F)(F)F)c2)c1C [Example 12.3, (S)-1-sec-Butyl-2-methyl-4-oxo-2′-trifluoromethyl-1,4-dihydro-[3,4]bipyridinyl-5-carboxylic acid 4-methanesulfonyl-benzylamide]
8.00 | Cc1c(-c2cccc(C(F)F)c2)c(=O)c(C(=O)NCc2ccc([S+](C)[O-])cc2)cn1C(C)C (stereo not drawn) [Example 4.8]
8.40 | Cc1c(-c2cccc(C(F)(F)F)c2)c(=O)c(C(=O)NCc2ccc3c(c2)CCS3(=O)=O)cn1C(C)C [Example 29.1, 1-Isopropyl-6-methyl-4-oxo-5-(3-trifluoromethyl-phenyl)-1,4-dihydro-pyridine-3-carboxylic acid (1,1-dioxo-2,3-dihydro-1H-1λ^6-benzo[b]thiophen-5-ylmethyl)-amide]
7.19 | Cc1c(-c2cccc(C(F)(F)F)c2)c(=O)c(C(=O)NCc2ccc(C#N)cc2)cn1C(C)C [Example 3.5]
7.57 | Cc1c(-c2cccc(C(F)(F)F)c2)c(=O)c(C(=O)NCc2ccc(S(C)(=O)=O)cc2)cn1C1CCC1 [Example 7, 1-Cyclobutyl-6-methyl-4-oxo-5-(3-trifluoromethyl-phenyl)-1,4-dihydro-pyridine-3-carboxylic acid 4-methanesulfonyl-benzylamide]
7.05 | Cc1c(-c2cccc(C(F)(F)F)c2)c(=O)c(C(=O)NCc2cccc(S(C)(=O)=O)c2)cn1C(C)C [Example 3.6]

pIC50 | Compound
7.37 | COCCn1cc(C(=O)NCc2ccc(S(C)(=O)=O)cn2)c(=O)c(-c2cccc(C(F)(F)F)c2)c1C [Example 21, 1-(2-Methoxy-ethyl)-6-methyl-4-oxo-5-(3-trifluoromethyl-phenyl)-1,4-dihydro-pyridine-3-carboxylic acid (5-methanesulfonyl-pyridin-2-ylmethyl)-amide]
7.96 | CCc1c(-c2cccc(C(F)(F)F)c2)c(=O)c(C(=O)NCc2ccc(S(=O)(=O)CC)cc2)cn1C(C)C [Example 30.2, 6-Ethyl-1-isopropyl-4-oxo-5-(3-trifluoromethyl-phenyl)-1,4-dihydro-pyridine-3-carboxylic acid 4-ethanesulfonyl-benzylamide]
7.77 | Cc1c(-c2cccc(C(F)F)c2)c(=O)c(C(=O)NCc2ccc(S(C)(=O)=O)cc2F)cn1C(C)C [Example 35, 5-(3-Difluoromethyl-phenyl)-1-isopropyl-6-methyl-4-oxo-1,4-dihydro-pyridine-3-carboxylic acid 2-fluoro-4-methanesulfonyl-benzylamide]
7.89 | CCS(=O)(=O)c1ccc(CNC(=O)c2cn(C(C)C)c(C)c(-c3cccc(C(F)(F)F)c3)c2=O)cc1 [Example 30.1, 1-Isopropyl-6-methyl-4-oxo-5-(3-trifluoromethyl-phenyl)-1,4-dihydro-pyridine-3-carboxylic acid 4-ethanesulfonyl-benzylamide]
7.52 | CC[C@@H](C)n1cc(C(=O)NCc2nnc(C)o2)c(=O)c(-c2cccc(C(F)F)c2)c1C [Example 25.2, (R)-1-sec-Butyl-5-(3-difluoromethyl-phenyl)-6-methyl-4-oxo-1,4-dihydro-pyridine-3-carboxylic acid (5-methyl-[1,3,4]oxadiazol-2-ylmethyl)-amide]
7.96 | CC[C@H](C)n1cc(C(=O)NCc2ccc(S(C)(=O)=O)cn2)c(=O)c(-c2cccc(C(F)F)c2)c1C [Example 20.2, (S)-1-sec-Butyl-5-(3-difluoromethyl-phenyl)-6-methyl-4-oxo-1,4-dihydro-pyridine-3-carboxylic acid (5-methanesulfonyl-pyridin-2-ylmethyl)-amide]
7.43 | CC[C@@H](C)n1cc(C(=O)NCc2nnc(C)o2)c(=O)c(-c2cccc(C(F)(F)F)c2)c1C [Example 25.1, (R)-1-sec-Butyl-6-methyl-4-oxo-5-(3-trifluoromethyl-phenyl)-1,4-dihydro-pyridine-3-carboxylic acid (5-methyl-[1,3,4]oxadiazol-2-ylmethyl)-amide]
7.52 | Cc1c(-c2cccc(C(F)(F)F)c2)c(=O)c(C(=O)NCc2ccc([S+](C)[O-])cc2)cn1C(C)C (single isomer, unassigned) [Example 27.1B]
7.34 | Cc1c(-c2cccc(C(F)(F)F)c2)c(=O)c(C(=O)NCc2ccc(S(C)(=O)=O)cc2)cn1CC(F)F [Example 46, 1-(2,2-Difluoro-ethyl)-6-methyl-4-oxo-5-(3-trifluoromethyl-phenyl)-1,4-dihydro-pyridine-3-carboxylic acid 4-methanesulfonyl-benzylamide]
7.55 | Cc1nnc(CNC(=O)c2cn(C3CCCC3)c(C)c(-c3cccc(C(F)F)c3)c2=O)o1 [Example 9.1, 1-Cyclopentyl-5-(3-difluoromethyl-phenyl)-6-methyl-4-oxo-1,4-dihydro-pyridine-3-carboxylic acid (5-methyl-[1,3,4]oxadiazol-2-ylmethyl)-amide]
7.48 | CCn1cc(C(=O)NCc2ccc(S(C)(=O)=O)cc2)c(=O)c(-c2cccc(C(F)(F)F)c2)c1C [Example 1.1, 1-Ethyl-6-methyl-4-oxo-5-(3-trifluoromethyl-phenyl)-1,4-dihydro-pyridine-3-carboxylic acid 4-methanesulfonyl-benzylamide]
7.92 | CCC(CC)n1cc(C(=O)NCc2ccc(S(C)(=O)=O)cn2)c(=O)c(-c2cccc(C(F)(F)F)c2)c1C [Example 23.1, 1-(1-Ethyl-propyl)-6-methyl-4-oxo-5-(3-trifluoromethyl-phenyl)-1,4-dihydro-pyridine-3-carboxylic acid (5-methanesulfonyl-pyridin-2-ylmethyl)-amide]
7.20 | Cc1c(-c2cccc(C(F)F)c2)c(=O)c(C(=O)NCc2cccc(S(C)(=O)=O)c2)cn1C(C)C [Example 4.9]
7.46 | CC[C@@H](C)n1cc(C(=O)NCc2ccc(S(C)(=O)=O)cc2)c(=O)c(-c2ccnc(C(F)(F)F)c2)c1C [Example 11.2, (R)-1-sec-Butyl-2-methyl-4-oxo-2′-trifluoromethyl-1,4-dihydro-[3,4]bipyridinyl-5-carboxylic acid 4-methanesulfonyl-benzylamide]
7.55 | Cc1c(-c2cccc(C(F)F)c2)c(=O)c(C(=O)NCc2cn3ccccc3n2)cn1C(C)C [Example 4.6]
7.51 | Cc1c(-c2cccc(C(F)F)c2)c(=O)c(C(=O)NCc2ccc(S(C)(=O)=O)s2)cn1C(C)C [Example 40, 5-(3-Difluoromethyl-phenyl)-1-isopropyl-6-methyl-4-oxo-1,4-dihydro-pyridine-3-carboxylic acid (5-methanesulfonyl-thiophen-2-ylmethyl)-amide]

Compound | pIC50
CCCn1cc(C(=O)NCc2ccc(S(C)(=O)=O)cc2)c(=O)c(-c2cccc(C(F)(F)F)c2)c1C [Example 1.3] | 7.55
